From patent US10912780B2, “Heterocyclic compounds useful as anti-bacterial agents and method for production thereof” (Bugworks Research, Inc., priority 2017, dated 2021)
In brackets after ≈: the same amount, converted by molar mass. Several values for one entry are separate records, joined by “and”; a condition that tells them apart may be missing. Equal values may be shown once.

Experiments:
[1] = system: K. pneumoniae clinical strains; assay: Antibacterial susceptibility studies (MIC50 and MIC90) with clinical strains, CLSI guidelines; format: cell-based
E. coli [ATCC25922] = assay: Urinary tract infection (UTI) rat model; format: in vivo; settings: 30 mg/kg, i.v. bolus, rat UTI, 24 h post infection
Method: The purpose of this study is to assess the efficacy of Example 15 against E. coli [ATCC25922] following single dose intravenous infusion doses of 3, 10 and 30 mg/kg in a Urinary Tract Infection Rat Model
Prior to the start of the infection process all animals were divided into different groups. All grouped cages of animals were carried to a procedure room, close to a biological safety cabinet. All infections were conducted in a biological safety cabinet, with appropriate personnel protection. Animals were anaesthetized by intraperitoneal injection of ketamine & xylazine (60+10 mg/kg i.p.) cocktail. Once the animals were in a sufficiently deep plane of anaesthesia as monitored by pedal reflex, the abdominal wall of each rat was shaved with electric clippers and the skin was cleansed with 10% povidine iodine. After a 1.5 to 2 cm lower abdominal wall incision, the abdominal wall muscles were separated with blunt dissection. […] After the replacement of the bladder to its original location, the abdominal muscles were approximated using suture and the skin was closed. The wounds were cleansed using 10% povidine iodine.
The IV formulation vehicle used was 10% of L-ascorbic acid in fresh MilliQ water (w/v) with pH adjusted to 4.0 with 1N Sodium hydroxide solution (w/v), and the dose volume was 10 mL/kg. Meropenem was prepared in MilliQ water and the pH of solution was adjusted to 4.5 using HCl. Four hours post infection, animals were dosed intravenously, as single doses (for test compounds), as a constant rate infusion, under Ketamine 60 mg/kg IP+Xylazine 10 mg/kg IP anesthesia, at a dose volume of 10 ml/kg, at the rate of 0.03 ml/min. The dose levels of the test compounds were 3, 10 and 30 mg/kg. Meropenem was administered as a single bolus dose at a dose volume of 5 ml/kg. All the animals were sacrificed at 24 h post infection, as specified in experimental design, by an overdose of CO2 in an appropriate exposure chamber. The group 1 animals were sacrificed at 4 h post infection.
The euthanized animals were dipped into 70% ethanol for surface decontamination. The organs were removed aseptically; the bladder was cut away near the urethra, and the kidneys were removed by blunt dissection to avoid bleeding. The bladder and each kidney separately were be homogenized in PBS. The CFU per milliliter homogenate of bladder, & kidney were determined after 18 to 24 h of incubation at 37° C.

[2] = system: E. cloacae clinical strains; assay: Antibacterial susceptibility studies (MIC50 and MIC90) with clinical strains, CLSI guidelines; format: cell-based
E. coli clinical strains = assay: as above; format: cell-based
[3] = system: P. aeruginosa clinical strains; assay: as above; format: cell-based
[4] = system: P. aeruginosa [ATCC27853]; assay: Neutropenic lung infection model in rat; format: in vivo; settings: 30 mg/kg, i.v. bolus, neutropenic rat, 24 h post infection
Method: The purpose of this study was to evaluate the efficacy of example 15 against P. aeruginosa [ATCC27853], following single dose intravenous infusion doses of 10, 30 and 100 mg/kg in a neutropenic lung infection model in rats
Prior to the start of the infection process, all animals were divided into different groups. All grouped cages of animals were carried to a procedure room, close to a biological safety cabinet. All infections were conducted in a biological safety cabinet, with appropriate personnel protection. Animals were placed into an induction chamber and anaesthesia was induced by exposing the animals to 3-5% Isoflurane in an oxygen flow set at approximately (˜) 1 liter per minute (LPM). Once the animals were in a sufficiently deep plane of anaesthesia as monitored by pedal reflex, they were removed and infected (2). […] A gentle mixing of inoculum between two animals was followed for uniform distribution.
The IV formulation vehicle used for example 15 was 10% of L-ascorbic acid in fresh MilliQ water (w/v) with pH adjusted to ˜4.0 with 1N Sodium hydroxide solution (w/v), and the dose volume was 10 mL/kg. Meropenem was formulated in saline. […] The dose levels of the test Example 15 were 10, 30 and 100 mg/kg.
All the animals in groups were sacrificed at 24 h post infection, as specified in experimental design, by an overdose of CO2 in an appropriate exposure chamber. The group 1 animals were sacrificed at 4 hrs post infection. The euthanized animals were dipped into 70% ethanol for surface decontamination. Entire Lung was aseptically isolated, weighed and placed into 1 mL of sterile CSDB broth, and homogenized (Omni Tip (220 V hand held)). Serial ten-fold dilutions of the lungs homogenates were prepared in sterile CSD broth and 0.05 mL of four dilutions for each tissue was plated onto CSDA agar plates. Bacterial colonies were enumerated following overnight incubation at 37° C. Bacterial densities were estimated as Log10 CFU/g lung. The Mean±SD Log10 CFU/g lung was estimated in each group. Significant differences between group means and control were analyzed by one way ANOVA, followed by a Dunnett's multiple comparison test, using Graphpad Prism at 95% confidence levels.

[5] = system: A. baumannii clinical strains; assay: Antibacterial susceptibility studies (MIC50 and MIC90) with clinical strains, CLSI guidelines; format: cell-based
[6] = Enterobacter cloacae, E. cloacae clinical strains (88 strains)

C[C@@H](O)[C@H]1C(=O)N2C(C(=O)O)=C(S[C@@H]3CN[C@H](C(=O)N(C)C)C3)[C@H](C)[C@H]12 [Meropenem, reference compound]
MIC ATCC13883 ([1]; K. pneumoniae reference strain ATCC13883, no unit in this line): 0.06 µg/mL (≈ 0.156 µM) | MIC50 ([1]; Klebsiella pneumoniae): 1 µg/mL (≈ 2.61 µM) | MIC90 ([1]; Klebsiella pneumoniae): 16 µg/mL (≈ 41.7 µM) | Minimum ([1]; lowest MIC among K. pneumoniae clinical strains (211 strains; Example 15: 176), no unit in this line): 0.03 | MEAN ± SD (Log10 CFU/g kidneys) (E. coli [ATCC25922]): 4.41 ± 0.70 Log10 CFU/g kidneys | Mean Log10 CFU/g kidney reduction (wrt 4 h PI control: 6.03 Log10 CFU/g kidneys) (E. coli [ATCC25922]): 1.62 Log10 CFU/g kidneys | MEAN ± SD (Log 10 CFU/ml Bladder) (E. coli [ATCC25922]; bladder): 4.34 ± 0.32 Log 10 CFU/ml | Mean Log10 CFU/ml Bladder reduction (wrt 4 h PI control: 6.49 CFU/ml Bladder) (E. coli [ATCC25922]; bladder): 2.15 Log10 CFU/ml | Log10 CFU/g (Left Kidney) (E. coli [ATCC25922]; individual animals): 4.62 Log10 CFU/g and 4.41 Log10 CFU/g and 5.19 Log10 CFU/g | Log10 CFU/g (Right Kidney) (E. coli [ATCC25922]; individual animals): 4.83 Log10 CFU/g and 3.13 Log10 CFU/g and 4.28 Log10 CFU/g | Log 10 CFU/ml Bladder (E. coli [ATCC25922]; individual animals, bladder): 4.43 Log 10 CFU/ml and 4.62 Log 10 CFU/ml and 3.99 Log 10 CFU/ml | MIC50 [2, 6]: 0.25 µg/mL (≈ 0.652 µM) | MIC90 [2, 6]: 16 µg/mL (≈ 41.7 µM) | Minimum ([2]; lowest MIC among E. cloacae clinical strains (88 strains), no unit in this line): 0.06 | MIC ATCC25922 (E. coli clinical strains; E. coli reference strain ATCC25922, no unit in this line (MIC50/MIC90 lines: μg/ml)): 0.06 µg/mL (≈ 0.156 µM) | MIC50 (E. coli clinical strains; Escherichia coli): 0.06 µg/mL (≈ 0.156 µM) | MIC90 (E. coli clinical strains; Escherichia coli): 4 µg/mL (≈ 10.4 µM) | Minimum (E. coli clinical strains; lowest MIC among E. coli clinical strains (201 strains; Example 15: 176), no unit in this line): 0.03 | MIC ATCC27853 ([3]; P. aeruginosa reference strain ATCC27853, no unit in this line): 0.5 µg/mL (≈ 1.3 µM) | MIC50 ([3]; Pseudomonas aeruginosa): 2 µg/mL (≈ 5.22 µM) | MIC90 ([3]; Pseudomonas aeruginosa): 8 µg/mL (≈ 20.9 µM) | Minimum ([3]; lowest MIC among P. aeruginosa clinical strains (215 strains; Example 15: 176), no unit in this line): 0.03 | MEAN ± SD (Log 10 CFU/g Lung) [4]: 5.04 ± 0.14 Log 10 CFU/g Lung | Mean Log 10CFU/g lung reduction (wrt 4 h PI control 5.78 Log10CFU/g lung) [4]: 0.74 Log10CFU/g lung | Log 10 CFU/g Lung ([4]; individual animals): 5.03 Log 10 CFU/g Lung and 5.18 Log 10 CFU/g Lung and 4.90 Log 10 CFU/g Lung | MIC ATCC19606 ([5]; A. baumannii reference strain ATCC19606, no unit in this line): 0.5 µg/mL (≈ 1.3 µM) | MIC50 ([5]; Acinetobacter baumannii): 8 µg/mL (≈ 20.9 µM) | MIC90 ([5]; Acinetobacter baumannii): 32 µg/mL (≈ 83.4 µM) | Minimum ([5]; lowest MIC among A. baumannii clinical strains (169 strains; Example 15: 132), no unit in this line): 0.03125
